≈ marks a conversion by molar mass, not a printed value. Like-named read-outs stand apart in the source and are kept apart here. Peptide text beside a SMILES is read from it. * marks the point of attachment. Acm = CC(=O)NC*
Legend:
[1] = test system: Escherichia coli ATCC 25922; format: cell-based
Method: (§1) The bacterial strains used were: Escherichia coli ATCC 25922 and Staphylococcus aureus ATCC 25923. All strains were stored at −70° C. The bacteria were grown in 2% Bacto Peptone water (Difco 1807-17-4). All tests were performed with bacteria in mid-logarithmic growth phase. Determination of the minimum inhibitory concentration (MIC) of the peptides for bacterial strains were performed in 1% Bacto Peptone water. A standard microdilution technique with an inoculum of 2×10^6 CFU/ml was used. All assays were performed in triplets. Since the peptides are positively charged and therefore could adhere to the plastic wells, we controlled the actual concentration of the peptides in the solution by HPLC. There was no difference between the concentration of the peptides before or after adding the solution to the plastic wells.

[2] = test system: Staphylococcus aureus ATCC 25923; format: cell-based
Method: as §1

CSCC[C@H](NC(=O)[C@H](CCCNC(=N)N)NC(=O)[C@H](Cc1ccc(-c2ccccc2)cc1)NC(=O)[C@H](CCC(N)=O)NC(=O)[C@H](Cc1c[nH]c2ccccc12)NC(=O)[C@H](CCCNC(=N)N)NC(=O)[C@H](CCCNC(=N)N)NC(=O)[C@H](CSCNC(C)=O)NC(=O)[C@H](CCCCN)NC(=O)[C@@H](N)Cc1ccccc1)C(=O)N[C@@H](CCCCN)C(=O)N[C@@H](CCCCN)C(=O)N[C@@H](CC(C)C)C(=O)NCC(=O)N[C@@H](C)C(=O)O [LFB Bip8]
MIC E. coli ([1]; ATCC 25922): 15 µg/mL (≈ 7.13 µM)
MIC S. aureus ([2]; ATCC 25923): 15 µg/mL (≈ 7.13 µM)

CSCC[C@H](NC(=O)[C@H](CCCNC(=N)N)NC(=O)[C@H](Cc1c[nH]c2ccccc12)NC(=O)[C@H](CCC(N)=O)NC(=O)[C@H](Cc1c[nH]c2ccccc12)NC(=O)[C@H](CCCNC(=N)N)NC(=O)[C@H](Cc1ccccc1)NC(=O)[C@H](CSCNC(C)=O)NC(=O)[C@H](CCCCN)NC(=O)[C@@H](N)CCCCN)C(=O)N[C@@H](CCCCN)C(=O)N[C@@H](CCCCN)C(=O)N[C@@H](CC(C)C)C(=O)NCC(=O)N[C@@H](C)C(=O)O [LFB F4K1] (H-KKC(Acm)FRWQWRMKKLGA-OH; N-terminus assumed)
MIC E. coli ATCC 25922 ([1]; ATCC 25922): 20 µg/mL
MIC E. coli ATCC 25922 ([1]; Table 1, value in brackets): 10 µM
MIC E. coli ([1]; Table 12): 20 µg/mL (≈ 9.82 µM)
MIC S. aureus ATCC 25923 ([2]; ATCC 25923): 200 µg/mL
MIC S. aureus ATCC 25923 ([2]; Table 1, value in brackets): 100 µM
MIC S. aureus ([2]; Table 12): 200 µg/mL (≈ 98.2 µM)

CSCC[C@H](NC(=O)[C@H](CCCNC(=N)N)NC(=O)[C@H](Cc1c[nH]c2ccccc12)NC(=O)[C@H](CCC(N)=O)NC(=O)[C@H](Cc1c[nH]c2ccccc12)NC(=O)[C@H](CCCNC(=N)N)NC(=O)[C@H](CCCNC(=N)N)NC(=O)[C@H](CSCNC(C)=O)NC(=O)[C@H](CCCCN)NC(=O)[C@@H](N)CCCCN)C(=O)N[C@@H](CCCCN)C(=O)N[C@@H](CCCCN)C(=O)N[C@@H](CC(C)C)C(=O)NCC(=O)N[C@@H](C)C(=O)O [LFB K1] (H-KKC(Acm)RRWQWRMKKLGA-OH; N-terminus assumed)
MIC E. coli ATCC 25922 ([1]; ATCC 25922): 60 µg/mL
MIC E. coli ATCC 25922 ([1]; Table 1, value in brackets): 30 µM
MIC E. coli ([1]; Table 12): 60 µg/mL (≈ 29.3 µM)
MIC S. aureus ATCC 25923 ([2]; ATCC 25923): 100 µg/mL
MIC S. aureus ATCC 25923 ([2]; Table 1, value in brackets): 50 µM
MIC S. aureus ([2]; Table 12): 100 µg/mL (≈ 48.9 µM)

CSCC[C@H](NC(=O)[C@H](CCCNC(=N)N)NC(=O)[C@H](Cc1c[nH]c2ccccc12)NC(=O)[C@H](CCC(N)=O)NC(=O)[C@H](Cc1c[nH]c2ccccc12)NC(=O)[C@H](CCC(N)=O)NC(=O)[C@H](Cc1ccc(O)cc1)NC(=O)[C@H](CSCNC(C)=O)NC(=O)[C@H](CCCCN)NC(=O)[C@@H](N)CO)C(=O)N[C@@H](CCCNC(=N)N)C(=O)N[C@@H](CCCCN)C(=O)N[C@@H](CC(C)C)C(=O)NCC(=O)N[C@@H](C)C(=O)O [LFGW8, H2N-Ser-Lys-Cys-Tyr-Gln-Trp-Gln-Trp-Arg-Met-Arg-Lys-Leu-Gly-Ala-COOH] (H-SKC(Acm)YQWQWRMRKLGA-OH)
MIC E. coli ([1]; Table 4): 500 µg/mL (≈ 248 µM)
MIC S. aureus ([2]; Table 4, unit assumed): > 1000 µg/mL

CSCC[C@H](NC(=O)[C@H](CC(N)=O)NC(=O)[C@H](Cc1c[nH]c2ccccc12)NC(=O)[C@H](CCC(N)=O)NC(=O)[C@H](Cc1c[nH]c2ccccc12)NC(=O)[C@H](CCC(N)=O)NC(=O)[C@H](Cc1ccccc1)NC(=O)[C@H](CSCNC(C)=O)NC(=O)[C@H](CCCCN)NC(=O)[C@@H](N)[C@@H](C)O)C(=O)N[C@@H](CCCNC(=N)N)C(=O)N[C@@H](CCCCN)C(=O)N[C@H](C(=O)N[C@@H](CCCNC(=N)N)C(=O)NCC(=O)O)C(C)C [LFHW8, H2N-Thr-Lys-Cys-Phe-Gln-Trp-Gln-Trp-Asn-Met-Arg-Lys-Val-Arg-Gly-COOH] (H-TKC(Acm)FQWQWNMRKVRG-OH)
MIC E. coli ([1]; Table 4): 110 µg/mL (≈ 53.9 µM)
MIC S. aureus ([2]; Table 4, unit assumed): > 1000 µg/mL

CSCC[C@H](NC(=O)[C@H](CCCNC(=N)N)NC(=O)[C@H](Cc1c[nH]c2ccccc12)NC(=O)[C@H](CCC(N)=O)NC(=O)[C@H](Cc1c[nH]c2ccccc12)NC(=O)[C@H](CCCNC(=N)N)NC(=O)[C@H](CC(C)C)NC(=O)[C@H](CSCNC(C)=O)NC(=O)[C@H](CCCCN)NC(=O)[C@H](C)N)C(=O)N[C@@H](CCCNC(=N)N)C(=O)N[C@@H](CCCCN)C(=O)N[C@@H](Cc1ccc(O)cc1)C(=O)NCC(=O)NCC(=O)O [LFM A1 R9 W8 Y13] (H-AKC(Acm)LRWQWRMRKYGG-OH; N-terminus and C-terminus assumed)
MIC E. coli ([1]; ATCC 25922): 50 µg/mL (≈ 24.9 µM)
MIC S. aureus ([2]; ATCC 25923): 200 µg/mL (≈ 99.5 µM)

CSCC[C@H](NC(=O)[C@H](CCC(=O)O)NC(=O)[C@H](Cc1c[nH]c2ccccc12)NC(=O)[C@H](CCC(N)=O)NC(=O)[C@H](Cc1c[nH]c2ccccc12)NC(=O)[C@H](CCCNC(=N)N)NC(=O)[C@H](CC(C)C)NC(=O)[C@H](CSCNC(C)=O)NC(=O)[C@H](CCCCN)NC(=O)[C@H](C)N)C(=O)N[C@@H](CCCNC(=N)N)C(=O)N[C@@H](CCCCN)C(=O)N[C@@H](Cc1ccc(O)cc1)C(=O)NCC(=O)NCC(=O)O [LFM A1 W8 Y13] (H-AKC(Acm)LRWQWEMRKYGG-OH; N-terminus and C-terminus assumed)
MIC E. coli ([1]; ATCC 25922): 500 µg/mL (≈ 252 µM)
MIC S. aureus ([2]; ATCC 25923): >1000 µg/mL

CSCC[C@H](NC(=O)[C@H](C)NC(=O)[C@H](Cc1c[nH]c2ccccc12)NC(=O)[C@H](CCC(N)=O)NC(=O)[C@H](Cc1c[nH]c2ccccc12)NC(=O)[C@H](CCCNC(=N)N)NC(=O)[C@H](CC(C)C)NC(=O)[C@H](CSCNC(C)=O)NC(=O)[C@H](CCCCN)NC(=O)[C@H](C)N)C(=O)N[C@@H](CCCNC(=N)N)C(=O)N[C@@H](CCCCN)C(=O)N[C@@H](Cc1ccc(O)cc1)C(=O)NCC(=O)NCC(=O)O [LFM A1, 9 W8 Y13] (H-AKC(Acm)LRWQWAMRKYGG-OH; N-terminus and C-terminus assumed)
MIC E. coli ([1]; ATCC 25922): 150 µg/mL (≈ 77.9 µM)
MIC S. aureus ([2]; ATCC 25923): >1000 µg/mL

CSCC[C@H](NC(=O)[C@H](C)NC(=O)[C@H](Cc1c[nH]c2ccccc12)NC(=O)[C@H](CCC(N)=O)NC(=O)[C@H](Cc1c[nH]c2ccccc12)NC(=O)[C@H](CCCNC(=N)N)NC(=O)[C@H](CC(C)C)NC(=O)[C@H](CSCNC(C)=O)NC(=O)[C@H](CCCCN)NC(=O)[C@@H](N)CCC(=O)O)C(=O)N[C@@H](CCCNC(=N)N)C(=O)N[C@@H](CCCCN)C(=O)N[C@@H](Cc1ccc(O)cc1)C(=O)NCC(=O)NCC(=O)O [LFM A9 W8 Y13] (H-EKC(Acm)LRWQWAMRKYGG-OH; N-terminus and C-terminus assumed)
MIC E. coli ([1]; ATCC 25922): >1000 µg/mL
MIC S. aureus ([2]; ATCC 25923): >1000 µg/mL

CSCC[C@H](NC(=O)[C@H](CCC(=O)O)NC(=O)[C@H](Cc1c[nH]c2ccccc12)NC(=O)[C@H](CCC(N)=O)NC(=O)[C@H](Cc1c[nH]c2ccccc12)NC(=O)[C@H](CCCNC(=N)N)NC(=O)[C@H](CC(C)C)NC(=O)[C@H](CSCNC(C)=O)NC(=O)[C@H](CCCCN)NC(=O)[C@@H](N)CCCNC(=N)N)C(=O)N[C@@H](CCCNC(=N)N)C(=O)N[C@@H](CCCCN)C(=O)N[C@@H](Cc1ccc(O)cc1)C(=O)NCC(=O)NCC(=O)O [LFM R1 W8 Y13] (H-RKC(Acm)LRWQWEMRKYGG-OH; N-terminus and C-terminus assumed)
MIC E. coli ([1]; ATCC 25922): 50 µg/mL (≈ 24.2 µM)
MIC S. aureus ([2]; ATCC 25923): 50 µg/mL (≈ 24.2 µM)

CSCC[C@H](NC(=O)[C@H](CCCNC(=N)N)NC(=O)[C@H](Cc1c[nH]c2ccccc12)NC(=O)[C@H](CCC(N)=O)NC(=O)[C@H](Cc1c[nH]c2ccccc12)NC(=O)[C@H](CCCNC(=N)N)NC(=O)[C@H](CC(C)C)NC(=O)[C@H](CSCNC(C)=O)NC(=O)[C@H](CCCCN)NC(=O)[C@@H](N)CCCNC(=N)N)C(=O)N[C@@H](CCCNC(=N)N)C(=O)N[C@@H](CCCCN)C(=O)N[C@@H](Cc1ccc(O)cc1)C(=O)NCC(=O)NCC(=O)O [LFM R1, 9 W8 Y13] (H-RKC(Acm)LRWQWRMRKYGG-OH; N-terminus and C-terminus assumed)
MIC E. coli ([1]; ATCC 25922): 25 µg/mL (≈ 11.9 µM)
MIC S. aureus ([2]; ATCC 25923): 50 µg/mL (≈ 23.9 µM)

CSCC[C@H](NC(=O)[C@H](CCCNC(=N)N)NC(=O)[C@H](Cc1c[nH]c2ccccc12)NC(=O)[C@H](CCC(N)=O)NC(=O)[C@H](Cc1c[nH]c2ccccc12)NC(=O)[C@H](CCCNC(=N)N)NC(=O)[C@H](CC(C)C)NC(=O)[C@H](CSCNC(C)=O)NC(=O)[C@H](CCCCN)NC(=O)[C@@H](N)CCC(=O)O)C(=O)N[C@@H](CCCNC(=N)N)C(=O)N[C@@H](CCCCN)C(=O)N[C@@H](Cc1ccc(O)cc1)C(=O)NCC(=O)NCC(=O)O [LFM R9 W8 Y13] (H-EKC(Acm)LRWQWRMRKYGG-OH; N-terminus and C-terminus assumed)
MIC E. coli ([1]; ATCC 25922): 150 µg/mL (≈ 72.5 µM)
MIC S. aureus ([2]; ATCC 25923): 1000 µg/mL (≈ 483 µM)

CSCC[C@H](NC(=O)[C@H](CCC(=O)O)NC(=O)[C@H](Cc1c[nH]c2ccccc12)NC(=O)[C@H](CCC(N)=O)NC(=O)[C@H](Cc1c[nH]c2ccccc12)NC(=O)[C@H](CCCNC(=N)N)NC(=O)[C@H](CC(C)C)NC(=O)[C@H](CSCNC(C)=O)NC(=O)[C@H](CCCCN)NC(=O)[C@@H](N)CCC(=O)O)C(=O)N[C@@H](CCCNC(=N)N)C(=O)N[C@@H](CCCCN)C(=O)N[C@@H](Cc1ccc(O)cc1)C(=O)NCC(=O)NCC(=O)O [LFM W8 Y13] (H-EKC(Acm)LRWQWEMRKYGG-OH; N-terminus and C-terminus assumed)
MIC E. coli ([1]; ATCC 25922): >1000 µg/mL
MIC S. aureus ([2]; ATCC 25923): >1000 µg/mL

— patent US20030022821A1, “Bioactive peptides” (priority 1998, published 2003)
